Data on 37 molecules can be found in US20260138988A1, “Spiropyrrolidine Derived Antiviral Agents” (Enanta Pharmaceuticals, Inc., priority 2021, published 2026).

Where only a bound is given, the exact number is not on record here.

One test addresses SARS-CoV-2 3CL-protease (Severe acute respiratory syndrome coronavirus 2, UniProt P0DTD1). In words: SARS-CoV-2 3C-Like (3CL) Protease Fluorescence Assay (FRET). The following applies: IC50, SARS-CoV-2 3CL-protease 10 nM, test compounds 0-10 μM, duplicate. Type of test: biochemical.
The term IC50 denotes the point on the concentration scale where inhibition reaches its midpoint. `C[C@H](NC(=O)C(F)(F)C(F)(F)F)C(=O)N(C)[C@@H](CC1CC1)C(=O)N1C[C@]2(C[C@H]1C#N)C(=O)N(COP(=O)(OC(C)(C)C)OC(C)(C)C)c1ccccc12` [Example 351] came in with an IC50 of under 100 nM.

The molecule `C[C@H](NC(=O)C(F)(F)C(F)(F)C(F)(F)F)C(=O)N(C)[C@@H](CC1CC1)C(=O)N1C[C@]2(C[C@H]1C#N)C(=O)Nc1ccccc12` [Example 206] came in with an IC50 of under 100 nM.

The test is the same for the next values; noted with them: SARS-CoV-2 3CL-protease 10 nM, test compounds 0-10 μM, duplicate, read-out: IC50.
Take `C[C@H](NC(=O)c1ccc2c(c1)OC(F)(F)O2)C(=O)N(C)[C@@H](CC(C)(C)C)C(=O)N1C[C@]2(C[C@H]1C#N)C(=O)Nc1ccccc12` [Example 280]: the IC50 was under 100 nM.

With `CC(C)C[C@@H](C(=O)N1C[C@]2(C[C@H]1C#N)C(=O)Nc1ccccc12)N(C)C(=O)[C@@H]1[C@@H]2C[C@@H]2CN1C` [Example 253], the IC50 lay within 100 to 1000 nM.

With `CC(C)C[C@@H](C(=O)N1C[C@]2(C[C@H]1C#N)C(=O)Nc1ccccc12)N(C)C(=O)[C@H](C)NC(=O)C1(F)CC1` [Example 296], the IC50 is under 100 nM.

With `C[C@H](NC(=O)c1cnn(-c2ccc(C(F)(F)F)cc2)c1)C(=O)N(C)[C@@H](CC(C)(C)C)C(=O)N1C[C@]2(C[C@H]1C#N)C(=O)Nc1ccccc12` [Example 221], the IC50 was under 100 nM.

For the molecule `CC(C)C[C@@H](C(=O)N1C[C@]2(C[C@H]1C#N)C(=O)Nc1ccccc12)N(C)C(=O)[C@H](C)NC(=O)C(F)(F)C1CCCC1` [Example 197], the IC50 was under 100 nM.

As to `CC(C)(C)C[C@H](NC(=O)c1ccc(F)cc1)C(=O)N[C@@H](CC(C)(C)C)C(=O)N1C[C@]2(C[C@H]1C#N)C(=O)Nc1ccccc12` [Example 225], the IC50 was under 100 nM.

Regarding `CC(C)C[C@@H](C(=O)N1C[C@]2(C[C@H]1C#N)C(=O)Nc1ccccc12)N(C)C(=O)[C@H](C)NC(=O)C(C)(C)C(F)(F)F` [Example 283], the IC50 was under 100 nM.

Consider `CC(C)(C)C[C@H](NC(=O)[C@H](CC1CC1)NC(=O)c1cccc2cc(F)ccc12)C(=O)N1C[C@]2(C[C@H]1C#N)C(=O)Nc1ccccc12` [Example 315], for which the IC50 was under 100 nM.

For `C[C@H](NC(=O)C12CC3CC(CC(C3)C1)C2)C(=O)N(C)[C@@H](CC(C)(C)C)C(=O)N1C[C@]2(C[C@H]1C#N)C(=O)Nc1ccccc12` [Example 310], the IC50 was under 100 nM.

With `CC(C)C[C@@H](C(=O)N1C[C@]2(C[C@H]1C#N)C(=O)Nc1ccccc12)N(C)C(=O)[C@H](C)NC(=O)C12CC(C(F)(F)F)(C1)C2` [Example 279], the half-maximal inhibitory concentration (IC50) is under 100 nM.

`CCN(C(=O)C(C)NC(=O)C12CC(C)(C1)C2)C(CC(C)C)C(=O)N1CC2(CC1C#N)C(=O)Nc1ccccc12` (stereo not shown) [Example 367]: the IC50 is under 100 nM.

Turning to `C[C@H](NC(=O)c1ccc(S(C)(=O)=O)cc1)C(=O)N(C)[C@@H](CC(C)(C)C)C(=O)N1C[C@]2(C[C@H]1C#N)C(=O)Nc1ccccc12` [Example 287], the IC50 is under 100 nM.

Turning to `C[C@H](NC(=O)c1c(F)c(F)c(F)c(F)c1F)C(=O)N(C)[C@@H](CC(C)(C)C)C(=O)N1C[C@]2(C[C@H]1C#N)C(=O)Nc1ccccc12` [Example 300], the IC50 was under 100 nM.

On to `C[C@H](NC(=O)C(F)(F)C(F)(F)F)C(=O)N(C)[C@@H](Cc1ccccc1)C(=O)N1C[C@]2(C[C@H]1C#N)C(=O)Nc1ccccc12` [Example 268], for which the IC50 was under 100 nM.

As for `COc1ccc(C(=O)N[C@@H](C)C(=O)N(C)[C@@H](CC(C)(C)C)C(=O)N2C[C@]3(C[C@H]2C#N)C(=O)Nc2ccccc23)c2ccccc12` [Example 293], the IC50 is under 100 nM.

On to `CC(C)C[C@@H](C(=O)N1C[C@]2(C[C@H]1C#N)C(=O)Nc1ccccc12)N(C)C(=O)[C@H](C)NC(=O)C1(F)CCC1` [Example 272], for which the IC50 was under 100 nM.

For `C[C@H](NC(=O)c1ccccc1-c1ccccc1)C(=O)N(C)[C@@H](CC(C)(C)C)C(=O)N1C[C@]2(C[C@H]1C#N)C(=O)Nc1ccccc12` [Example 282], the IC50 is under 100 nM.

Consider `C[C@H](NC(=O)c1ccc(C(C)(C)C)cc1)C(=O)N(C)[C@@H](CC(C)(C)C)C(=O)N1C[C@]2(C[C@H]1C#N)C(=O)Nc1ccccc12` [Example 213], for which the IC50 is under 100 nM.

For the molecule `CC(C)C[C@@H](C(=O)N1C[C@]2(C[C@H]1C#N)C(=O)Nc1ccccc12)N(C)C(=O)[C@H](C)NC(=O)C12CC(F)(C1)C2` [Example 278], the IC50 is under 100 nM.

Regarding `CCCC(F)(F)C(=O)N[C@@H](C)C(=O)N(C)[C@@H](CC(C)C)C(=O)N1C[C@]2(C[C@H]1C#N)C(=O)Nc1ccccc12` [Example 277], the IC50 is under 100 nM.

In the case of `C[C@H](NC(=O)c1ccc(F)cc1)C(=O)N(C)[C@@H](CC(C)(C)C)C(=O)N1C[C@]2(C[C@H]1C#N)C(=O)Nc1ccccc12` [Example 224], the IC50 was under 100 nM.

As for `CC(C)(C)C[C@H](NC(=O)[C@H](CC1CC1)NC(=O)c1c[nH]cn1)C(=O)N1C[C@]2(C[C@H]1C#N)C(=O)Nc1ccccc12` [Example 325], the IC50 lay within 100 to 1000 nM.

For `CC(C)C[C@@H](C(=O)N1C[C@]2(C[C@H]1C#N)C(=O)Nc1ccccc12)N(C)C(=O)[C@@H]1CC2(CCCC2)CN1C(C)C` [Example 255], the IC50 is under 100 nM.

Turning to `CC(C)C[C@@H](C(=O)N1C[C@]2(C[C@H]1C#N)C(=O)Nc1ccccc12)N(C)C(=O)[C@H](C)NC(=O)c1ccc2c(c1)OCC2` [Example 190], the IC50 is under 100 nM.

Consider `CCC(F)(F)C(=O)N[C@@H](C)C(=O)N(C)[C@@H](CC(C)C)C(=O)N1C[C@]2(C[C@H]1C#N)C(=O)Nc1ccccc12` [Example 271], for which the IC50 was under 100 nM.

`C[C@H](NC(=O)c1ccc(-c2ccccc2)cc1)C(=O)N(C)[C@@H](CC(C)(C)C)C(=O)N1C[C@]2(C[C@H]1C#N)C(=O)Nc1ccccc12` [Example 289]: the IC50 is under 100 nM.

In the case of `C[C@H](NC(=O)C12CC(C)(C1)C2)C(=O)N(C)[C@@H](CC(C)(C)C)C(=O)N1C[C@]2(C[C@H]1C#N)C(=O)Nc1ccccc12` [Example 309], the IC50 was under 100 nM.

With `CC(C)C[C@@H](C(=O)N1C[C@]2(C[C@H]1C#N)C(=O)Nc1ccccc12)N(C)C(=O)[C@H](C)NC(=O)C(C)C` [Example 217], the IC50 was under 100 nM.

Turning to `CC(C)(C)C[C@H](NC(=O)[C@H](CC1CC1)NS(=O)(=O)c1ccc(F)cc1)C(=O)N1C[C@]2(C[C@H]1C#N)C(=O)Nc1ccccc12` [Example 313], the IC50 is under 100 nM.

As to `CC(C)(C)C[C@H](NC(=O)[C@H](CC1CC1)NC(=O)OC1CC1)C(=O)N1C[C@]2(C[C@H]1C#N)C(=O)Nc1ccccc12` [Example 331], the IC50 is 100 to 1000 nM.

For `CC(C)C[C@@H](C(=O)N1C[C@]2(C[C@H]1C#N)C(=O)Nc1ccccc12)N(C)C(=O)[C@@H]1CC2(CCCC2)CN1C1CC1` [Example 256], the IC50 is under 100 nM.

With `CCN1C[C@H]2C[C@H]2[C@H]1C(=O)N(C)[C@@H](CC(C)C)C(=O)N1C[C@]2(C[C@H]1C#N)C(=O)Nc1ccccc12` [Example 254], the IC50 fell in the range of 100 to 1000 nM.

Regarding `C[C@H](NC(=O)C(C)(F)F)C(=O)N(C)[C@@H](CC(C)(C)C)C(=O)N1C[C@]2(C[C@H]1C#N)C(=O)Nc1ccccc12` [Example 288], the IC50 was under 100 nM.

Consider `CC(C)(C)C[C@H](NC(=O)[C@@H](Nc1cnc2ccccc2c1)C1CC1)C(=O)N1C[C@]2(C[C@H]1C#N)C(=O)Nc1ccccc12` [Example 343], for which the IC50 is under 100 nM.

For the molecule `CC(C)(C)C[C@H](NC(=O)[C@H](CC1CC1)NC(=O)C1CC2CCC1C2)C(=O)N1C[C@]2(C[C@H]1C#N)C(=O)Nc1ccccc12` (stereo partly shown) [Example 318], the IC50 is under 100 nM.
